# Laboratory results: patent US5543410A, “Pharmacological use of phthaloylhydrazide derivatives; combination and application thereof” (L.I.M.A.D. Limited, priority 1993, dated 1996)
# System: toxins
smiles,measurement,setting,value
Nc1cccc2c(=O)[nH][nH]c(=O)c12,time to therapeutic effect,"after administration, acute phase",twenty to thirty
same,injections sufficient for complete elimination of pathological indications,within a one-day period,one or two
